From patent US9772337B2, “Compositions and methods for functional gylcomics” (Emory University, priority 2010, dated 2017) come the findings set out here.

This test deals with anti-GD1a antibody. The experiment in a line: BBG GSL-AOAB shotgun microarray binding assay with anti-GD1a antibody. The following applies: fractions printed at 10 μM on NHS-slides.

On to “Neu5Acα2-3Galβ1-3GalNAcβ1-4(Neu5Acα2-3)Galβ1-4Glcβ1-R [GD1a-AOAB]”, for which the “binding of anti-GD1a antibody to BBG GSL-AOAB fractions” value is “primarily bound”.
